Test results taken from ChEMBL document CHEMBL5120938, “Development of BET Inhibitors as Potential Treatments for Cancer: Optimization of Pharmacokinetic Properties” (ACS Med Chem Lett, 2022).

Legend:
[1] = Metabolic stability in alamethicin treated cynomologus monkey liver microsomes assessed as half life pretreated for 5 mins followed by UDPGA addition and measured up to 45 mins by LC-MS/MS analysis; format: ADME, Macaca fascicularis, Microsome; details: cynomolgus monkey, time < 50 min
[2] = AUC in mouse at 3 mg/kg, po; format: ADME, organism-based; set-up: dose 3 mg/kg, route po; details: in vivo
[3] = Metabolic stability in alamethicin treated Beagle dog liver microsomes assessed as half life pretreated for 5 mins followed by NADPH addition and measured up to 45 mins by LC-MS/MS analysis; format: ADME, Canis lupus familiaris, Microsome; details: time < 50 min
[4] = Volume of distribution in dog at 0.3 mg/kg, po or 0.1 mg/kg, iv; format: ADME, organism-based, Canis lupus familiaris; details: in vivo
[5] = Metabolic stability in alamethicin treated Sprague-Dawley rat liver microsomes assessed as half life pretreated for 5 mins followed by UDPGA addition and measured up to 45 mins by LC-MS/MS analysis; format: ADME, Microsome; details: time < 50 min
[6] = Volume of distribution in rat at 5 mg/kg, po or 1 mg/kg, iv; format: ADME, organism-based; details: in vivo
[7] = Oral bioavailability in rat at 5 mg/kg; format: ADME, organism-based; details: in vivo
[8] = Oral bioavailability in cynomologus monkey at 0.3 mg/kg; format: ADME, organism-based, Macaca fascicularis; details: cynomolgus monkey, in vivo
[9] = AUC in cynomologus monkey at 0.3 mg/kg, po; format: ADME, organism-based, Macaca fascicularis; set-up: dose 0.3 mg/kg, route po; details: cynomolgus monkey, in vivo
[10] = Inhibition of c-MYC expression in human JJN-3R cells measured after 4 hrs; format: functional, cell-based
[11] = Metabolic stability in alamethicin treated CD-1 mouse liver microsomes assessed as half life pretreated for 5 mins followed by UDPGA addition and measured up to 45 mins by LC-MS/MS analysis; format: ADME, Microsome; details: time < 50 min
[12] = AUC in dog at 0.3 mg/kg, po; format: ADME, organism-based, Canis lupus familiaris; set-up: dose 0.3 mg/kg, route po; details: in vivo
[13] = Half life in cynomologus monkey at 0.1 mg/kg, iv; format: ADME, organism-based, Macaca fascicularis; details: cynomolgus monkey, in vivo
[14] = Drug metabolism in human hepatocytes assessed as glucuronides formation at 5 uM measured after 2 hrs by LC/UV/MS analysis; format: ADME, cell-based, Hepatocyte
[15] = Metabolic stability in alamethicin treated Sprague-Dawley rat liver microsomes assessed as half life pretreated for 5 mins followed by NADPH addition and measured up to 45 mins by LC-MS/MS analysis; format: ADME, Microsome; details: time < 50 min
[16] = Metabolic stability in alamethicin treated human liver microsomes assessed as half life pretreated for 5 mins followed by UDPGA addition and measured up to 45 mins by LC-MS/MS analysis; format: ADME, Microsome; details: time < 50 min
[17] = Metabolic stability in alamethicin treated CD-1 mouse liver microsomes assessed as half life pretreated for 5 mins followed by NADPH addition and measured up to 45 mins by LC-MS/MS analysis; format: ADME, Microsome; details: time < 50 min
[18] = Half life in mouse at 1 mg/kg, iv; format: ADME, organism-based; details: in vivo
[19] = AUC in rat at 5 mg/kg, po; format: ADME, organism-based; set-up: dose 5 mg/kg, route po; details: in vivo
[20] = target: Bromodomain-containing protein 3 (Homo sapiens, UniProt Q15059); test: Inhibition of BRD3 (unknown origin)
[21] = Metabolic stability in alamethicin treated human liver microsomes assessed as half life pretreated for 5 mins followed by NADPH addition and measured up to 45 mins by LC-MS/MS analysis; format: ADME, Microsome; details: time < 50 min
[22] = Oral bioavailability in dog at 0.3 mg/kg; format: ADME, organism-based, Canis lupus familiaris; details: in vivo
[23] = Volume of distribution in cynomologus monkey at 0.3 mg/kg, po or 0.1 mg/kg, iv; format: ADME, organism-based, Macaca fascicularis; details: cynomolgus monkey, in vivo
[24] = Antiproliferative activity against human JJN-3R cells assessed as inhibition of cell proliferation measured after 72 hrs by MTS assay; format: functional, cell-based
[25] = Oral bioavailability in mouse at 3 mg/kg; format: ADME, organism-based; details: in vivo
[26] = Metabolic stability in alamethicin treated cynomologus monkey liver microsomes assessed as half life pretreated for 5 mins followed by NADPH addition and measured up to 45 mins by LC-MS/MS analysis; format: ADME, Macaca fascicularis, Microsome; details: cynomolgus monkey, time < 50 min
[27] = Half life in rat at 1 mg/kg, iv; format: ADME, organism-based; details: in vivo
[28] = AUC in mouse xenografted with human BR1077F cells at 2 mg/kg, po QD treated as 5 days on and 2 days off regimen for 2 weeks starting from 26 days post tumor implantation; format: ADME, organism-based; set-up: time 2 weeks, dose 2 mg/kg, route po; details: in vivo
[29] = Efflux ratio of apparent permeability across […] in human Caco-2 cells after 2 hrs by liquid scintillation counting analysis; format: ADME, cell-based; details: caco-2, 2 h
[30] = Volume of distribution in mouse at 3 mg/kg, po or 1 mg/kg, iv; format: ADME, organism-based; details: in vivo
[31] = Half life in dog at 0.1 mg/kg, iv; format: ADME, organism-based, Canis lupus familiaris; details: in vivo
[32] = Metabolic stability in alamethicin treated Beagle dog liver microsomes assessed as half life pretreated for 5 mins followed by UDPGA addition and measured up to 45 mins by LC-MS/MS analysis; format: ADME, Canis lupus familiaris, Microsome
[33] = target: Bromodomain-containing protein 2 (Homo sapiens, UniProt P25440); test: Inhibition of BRD2 (unknown origin)
[34] = Antitumor activity against human BR1077F cells xenografted in mouse assessed as tumor growth inhibition at 2 mg/kg, po QD treated as 5 days on and 2 days off regimen for 2 weeks starting from 26 days post tumor implantation; format: functional; details: 336 h, read-out: TGI
[35] = AUC in mouse xenografted with human BR1077F cells at 3 mg/kg, po QD treated as 5 days on and 2 days off regimen for 2 weeks starting from 26 days post tumor implantation; format: ADME, organism-based; set-up: time 2 weeks, dose 3 mg/kg, route po; details: in vivo
[36] = Drug metabolism in human hepatocytes assessed as glucuronidation of the compound at 5 uM measured after 1 hr by LC/UV/MS analysis; format: ADME, cell-based, Hepatocyte
[37] = AUC in mouse at 5 mg/kg, po; format: ADME, organism-based; set-up: dose 5 mg/kg, route po; details: in vivo
[38] = Antitumor activity against human BR1077F cells xenografted in mouse assessed as tumor growth inhibition at 3 mg/kg, po QD treated as 5 days on and 2 days off regimen for 2 weeks starting from 26 days post tumor implantation; format: functional; details: 336 h, read-out: TGI
[39] = Half life in mouse at 1.75 mg/kg, iv; format: ADME, organism-based; details: in vivo
[40] = Drug metabolism in human hepatocytes assessed as oxidative metabolite formation at 5 uM measured after 1 hr by LC/UV/MS analysis; format: ADME, cell-based, Hepatocyte
[41] = Volume of distribution in mouse at 5 mg/kg, po or 1.75 mg/kg, iv; format: ADME, organism-based; details: in vivo

Bromodomain-containing protein 3, sequence (Q15059 whole entry): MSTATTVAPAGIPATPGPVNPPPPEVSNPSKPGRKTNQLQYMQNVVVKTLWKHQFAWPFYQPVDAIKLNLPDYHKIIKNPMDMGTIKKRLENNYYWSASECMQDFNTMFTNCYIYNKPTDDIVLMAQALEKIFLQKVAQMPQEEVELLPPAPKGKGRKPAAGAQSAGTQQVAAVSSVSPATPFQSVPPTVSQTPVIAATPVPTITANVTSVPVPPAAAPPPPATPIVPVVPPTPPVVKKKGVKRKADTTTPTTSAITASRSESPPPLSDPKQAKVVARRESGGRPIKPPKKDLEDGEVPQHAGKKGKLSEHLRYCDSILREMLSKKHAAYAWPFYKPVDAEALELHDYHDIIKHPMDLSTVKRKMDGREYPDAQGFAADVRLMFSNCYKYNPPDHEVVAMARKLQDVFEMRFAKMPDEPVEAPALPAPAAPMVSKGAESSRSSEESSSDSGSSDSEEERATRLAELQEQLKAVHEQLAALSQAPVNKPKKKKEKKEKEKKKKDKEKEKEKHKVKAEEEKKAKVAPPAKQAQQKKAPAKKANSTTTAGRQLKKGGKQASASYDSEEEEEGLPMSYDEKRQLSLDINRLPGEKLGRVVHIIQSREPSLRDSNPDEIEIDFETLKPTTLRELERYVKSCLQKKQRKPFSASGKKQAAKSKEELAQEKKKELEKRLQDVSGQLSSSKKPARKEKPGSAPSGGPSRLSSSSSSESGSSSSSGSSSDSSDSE
Bromodomain-containing protein 2, sequence (P25440 whole entry): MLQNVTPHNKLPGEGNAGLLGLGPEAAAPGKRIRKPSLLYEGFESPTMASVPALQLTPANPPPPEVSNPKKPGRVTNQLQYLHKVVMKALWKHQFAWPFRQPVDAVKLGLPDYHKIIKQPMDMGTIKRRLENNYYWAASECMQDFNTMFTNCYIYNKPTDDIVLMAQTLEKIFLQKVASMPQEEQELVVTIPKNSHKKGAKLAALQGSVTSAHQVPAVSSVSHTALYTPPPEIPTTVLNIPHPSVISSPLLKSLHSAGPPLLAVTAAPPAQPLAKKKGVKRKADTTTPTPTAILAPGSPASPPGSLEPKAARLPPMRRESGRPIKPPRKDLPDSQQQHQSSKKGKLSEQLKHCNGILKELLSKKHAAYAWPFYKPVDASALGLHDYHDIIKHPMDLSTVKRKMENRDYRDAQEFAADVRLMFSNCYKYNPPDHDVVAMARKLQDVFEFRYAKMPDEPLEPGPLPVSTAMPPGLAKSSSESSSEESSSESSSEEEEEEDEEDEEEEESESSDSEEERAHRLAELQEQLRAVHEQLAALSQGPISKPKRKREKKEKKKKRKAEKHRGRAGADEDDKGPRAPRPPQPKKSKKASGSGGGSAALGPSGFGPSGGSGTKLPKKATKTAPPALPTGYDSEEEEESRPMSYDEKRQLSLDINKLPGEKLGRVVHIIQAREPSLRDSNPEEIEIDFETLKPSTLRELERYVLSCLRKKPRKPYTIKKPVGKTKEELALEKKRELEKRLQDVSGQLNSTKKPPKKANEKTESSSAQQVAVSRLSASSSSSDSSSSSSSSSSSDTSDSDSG

SMILES | half-life [1] [h] | half-life [3] [h] | Vd [4] [L/kg] | half-life [5] [h] | Vd [6] [L/kg] | bioavailability [8] [%] | AUC [9] [µM·h] | IC50 [10] [nM] | half-life [11] [h] | AUC [12] [µM·h] | half-life [13] [h] | half-life [15] [h] | half-life [16] [h] | half-life [17] [h] | AUC [19] [µM·h] | half-life [21] [h] | bioavailability [22] [%] | Vd [23] [L/kg] | IC50 [24] [nM] | half-life [26] [h] | other results
[2H]C([2H])([2H])c1nnn(C)c1-c1cnc2c3cc(F)c(C(C)(C)O)cc3n([C@H](c3ccccc3)C3CCOCC3)c2c1 | 2 | 0.533 | 5.8 | 2 | 2.9 | 85 | 1.9 | 2 | 2 | 0.55 | 4 | 0.767 | 2 | 0.683 | 6.6 | 0.867 | 73 | 1.3 | 6 | 0.167 | AUC [2]: 25 µM·h; bioavailability [7]: 74%; Drug metabolism [14]: Metabolite_Notdetected; half-life [18]: 3.4 h; IC50 [20]: 1.6 nM; bioavailability [25]: 100%; half-life [27]: 4.1 h; AUC at 336 h [28]: 4.8 µM·h; Ratio [29]: 1.8; Vd [30]: 1.4 L/kg; half-life [31]: 7.6 h; t1/2 ([32]; microsomes, 50 min): 2 h; IC50 [33]: 0.2 nM; inhibition in vivo at 2 mg/kg [34]: 88%
Cc1nnn(C)c1-c1cnc2c3ccc(C(C)(C)O)cc3n([C@H](c3ccccc3)C3CCOCC3)c2c1 [EZOBRESIB] | 2 | 0.333 | 5.3 | 1.02 | 4.3 | 16 | 0.085 | 0.7 | 2 | 0.41 | 2 | 0.6 | 1.92 | 0.4 | 2 | 0.55 | 59 | 4.2 | 3.6 | 0.167 | AUC at 336 h [35]: 2.6 µM·h; Drug metabolism [36]: Metabolite_Detected; AUC [37]: 18 µM·h; inhibition in vivo at 3 mg/kg [38]: 99%; half-life [39]: 1.9 h; Drug metabolism [40]: Metabolite_Detected; Ratio [29]: 2.6; Vd [41]: 1.9 L/kg; half-life ([32]; Beagle, liver microsomes, time < 50 min): 2 h
